In ChEMBL document CHEMBL1144646, “Imidazole moiety replacements in the 3-(1H-benzo[d]imidazol-2-yl)pyridin-2(1H)-one inhibitors of insulin-like growth factor receptor-1 (IGF-1R) to improve cytochrome P450 profile” (Bioorg Med Chem Lett, 2007):

Legend:
[1] = biological target: T1, Cytochrome P450 1A2 (Homo sapiens, UniProt P05177); assay: Inhibition of CYP1A2 in microsomes; format: ADME
T1 sequence (P05177 whole entry): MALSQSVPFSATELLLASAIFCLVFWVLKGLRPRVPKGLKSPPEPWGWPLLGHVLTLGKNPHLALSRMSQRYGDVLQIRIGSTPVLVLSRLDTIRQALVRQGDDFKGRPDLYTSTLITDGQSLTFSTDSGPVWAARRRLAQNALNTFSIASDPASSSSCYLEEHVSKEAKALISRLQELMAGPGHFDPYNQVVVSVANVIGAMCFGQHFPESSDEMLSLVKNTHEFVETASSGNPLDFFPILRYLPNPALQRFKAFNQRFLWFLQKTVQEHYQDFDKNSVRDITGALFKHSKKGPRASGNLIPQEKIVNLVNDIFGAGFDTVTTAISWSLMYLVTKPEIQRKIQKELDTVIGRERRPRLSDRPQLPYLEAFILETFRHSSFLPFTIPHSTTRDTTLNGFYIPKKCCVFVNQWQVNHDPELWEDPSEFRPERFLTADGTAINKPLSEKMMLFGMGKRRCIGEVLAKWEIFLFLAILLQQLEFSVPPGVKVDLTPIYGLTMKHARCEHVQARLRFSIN

[2] = biological target: Cytochrome P450 2C19 (Homo sapiens, UniProt P33261); assay: Inhibition of CYP2C19 in microsomes; format: ADME
[3] = biological target: Cytochrome P450 3A4 (Homo sapiens, UniProt P08684); assay: Inhibition of CYP3A4 in microsomes
[4] = biological target: Cytochrome P450 2C9 (Homo sapiens, UniProt P11712); assay: Inhibition of CYP2C9 in microsomes; format: ADME
[5] = biological target: Cytochrome P450 2D6 (Homo sapiens, UniProt P10635); assay: Inhibition of CYP2D6 in microsomes; format: ADME
Cytochrome P450 2D6, sequence (P10635 whole entry): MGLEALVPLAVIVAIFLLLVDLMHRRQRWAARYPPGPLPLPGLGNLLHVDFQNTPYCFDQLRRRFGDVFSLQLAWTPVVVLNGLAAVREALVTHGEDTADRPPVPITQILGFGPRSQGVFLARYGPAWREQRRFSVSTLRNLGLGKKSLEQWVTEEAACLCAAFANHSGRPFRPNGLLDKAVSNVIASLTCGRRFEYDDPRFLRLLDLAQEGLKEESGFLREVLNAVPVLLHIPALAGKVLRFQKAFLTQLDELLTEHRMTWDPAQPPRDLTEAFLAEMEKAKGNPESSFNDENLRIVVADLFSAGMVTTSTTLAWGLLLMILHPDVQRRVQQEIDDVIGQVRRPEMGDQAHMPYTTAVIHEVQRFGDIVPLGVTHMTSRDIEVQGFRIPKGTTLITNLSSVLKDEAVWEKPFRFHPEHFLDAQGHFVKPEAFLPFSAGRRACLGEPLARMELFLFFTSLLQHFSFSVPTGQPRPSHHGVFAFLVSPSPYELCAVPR

Cytochrome P450 3A4, sequence (P08684 whole entry): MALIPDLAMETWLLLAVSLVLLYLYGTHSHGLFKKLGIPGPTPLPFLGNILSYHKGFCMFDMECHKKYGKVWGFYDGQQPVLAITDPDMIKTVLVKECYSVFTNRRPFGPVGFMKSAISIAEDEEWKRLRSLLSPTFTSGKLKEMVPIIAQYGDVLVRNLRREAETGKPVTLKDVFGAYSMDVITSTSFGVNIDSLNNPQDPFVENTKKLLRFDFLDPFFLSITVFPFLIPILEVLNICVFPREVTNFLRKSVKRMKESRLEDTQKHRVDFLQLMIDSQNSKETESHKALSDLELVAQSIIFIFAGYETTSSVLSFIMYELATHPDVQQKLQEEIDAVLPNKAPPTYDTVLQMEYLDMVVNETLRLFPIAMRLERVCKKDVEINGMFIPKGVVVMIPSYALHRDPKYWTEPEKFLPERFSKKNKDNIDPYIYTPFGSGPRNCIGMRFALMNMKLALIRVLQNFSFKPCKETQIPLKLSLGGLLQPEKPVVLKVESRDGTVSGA
Cytochrome P450 2C19, sequence (P33261 whole entry): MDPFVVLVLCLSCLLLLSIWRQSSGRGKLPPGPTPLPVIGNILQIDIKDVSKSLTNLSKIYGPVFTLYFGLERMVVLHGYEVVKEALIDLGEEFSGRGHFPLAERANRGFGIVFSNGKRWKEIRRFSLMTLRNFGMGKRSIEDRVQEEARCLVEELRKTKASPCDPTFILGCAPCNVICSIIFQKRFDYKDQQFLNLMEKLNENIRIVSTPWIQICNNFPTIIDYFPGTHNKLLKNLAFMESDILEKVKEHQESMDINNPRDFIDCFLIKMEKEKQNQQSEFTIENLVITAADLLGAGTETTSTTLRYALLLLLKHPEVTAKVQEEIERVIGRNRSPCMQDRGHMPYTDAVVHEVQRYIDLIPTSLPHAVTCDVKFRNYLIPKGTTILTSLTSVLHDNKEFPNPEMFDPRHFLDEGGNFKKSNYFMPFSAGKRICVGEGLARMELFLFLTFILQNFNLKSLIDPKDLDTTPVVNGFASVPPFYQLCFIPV
Cytochrome P450 2C9, sequence (P11712 whole entry): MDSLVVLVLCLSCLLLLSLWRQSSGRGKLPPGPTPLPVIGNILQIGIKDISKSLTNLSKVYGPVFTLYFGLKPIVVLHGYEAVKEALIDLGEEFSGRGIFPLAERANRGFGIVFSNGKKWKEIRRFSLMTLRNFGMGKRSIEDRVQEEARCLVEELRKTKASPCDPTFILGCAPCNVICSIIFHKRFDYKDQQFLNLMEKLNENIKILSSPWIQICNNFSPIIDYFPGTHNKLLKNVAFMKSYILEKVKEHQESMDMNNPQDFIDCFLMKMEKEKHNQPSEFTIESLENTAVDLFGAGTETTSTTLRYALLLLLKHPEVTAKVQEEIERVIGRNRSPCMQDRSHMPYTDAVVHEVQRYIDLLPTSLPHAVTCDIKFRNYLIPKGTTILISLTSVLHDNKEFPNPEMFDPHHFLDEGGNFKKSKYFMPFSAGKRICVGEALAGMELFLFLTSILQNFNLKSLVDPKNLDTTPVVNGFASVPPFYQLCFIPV

SMILES	IC50 [1] [µM]	IC50 [2] [µM]	IC50 [3] [µM]	IC50 [4] [µM]	IC50 [5] [µM]
Cc1cccc2[nH]c(-c3c(NCC(O)c4cccc(Cl)c4)cc[nH]c3=O)nc12 (configuration not stated)	0.38	0.26	0.71	1.5	
Cc1cc(Br)cc2[nH]c(-c3c(N[C@H](CO)Cc4ccccc4)cc[nH]c3=O)nc12	0.052	0.32	3.1	0.72	
Cc1cc(C(=O)NC2CCCC2)cc2[nH]c(-c3c(NCC(O)c4cccc(Cl)c4)cc[nH]c3=O)nc12 (configuration not stated)	9.8	0.48	1.6	3.5	
Cc1cc(-n2ccnc2)cc2nc(-c3c(NCc4ccccn4)cc[nH]c3=O)[nH]c12	< 0.03	0.1	0.08	< 0.03	5.7
COc1ccc(-c2cc(C)c3nc(-c4c(N[C@H](CO)Cc5ccccc5)cc[nH]c4=O)[nH]c3c2)cc1	12	2.2	6.8	11	
Cc1cc(C(=O)N(C)C)cc2[nH]c(-c3c(NCC(O)c4cccc(Cl)c4)cc[nH]c3=O)nc12 (configuration not stated)	15	1.7	2.2	2.8	
Cc1cc(-n2ccnc2)cc2[nH]c(-c3c(N[C@H](CO)Cc4ccccc4)cc[nH]c3=O)nc12	< 0.04	< 0.04	0.06	< 0.04	0.56
Cc1cc(C(=O)NC2CC2)cc2[nH]c(-c3c(NCC(O)c4cccc(Cl)c4)cc[nH]c3=O)nc12 (configuration not stated)	93	3.5	10	8.1	
Cc1c[nH]c(-c2cc(C)c3[nH]c(-c4c(NCC(O)c5cccc(Cl)c5)cc[nH]c4=O)nc3c2)n1 (configuration not stated)	5.8	2	0.36	7.8	
Cc1cc(-c2ccc(F)cc2)cc2[nH]c(-c3c(N[C@H](CO)Cc4ccccc4)cc[nH]c3=O)nc12	3.2	1	6.3	4	
Cc1cc(-n2ccnc2)cc2[nH]c(-c3c(NCC(O)c4cccc(Cl)c4)cc[nH]c3=O)nc12 (configuration not stated)	< 0.04	< 0.04	< 0.046	< 0.04	
CNC(=O)c1cc(C)c2nc(-c3c(NCC(O)c4cccc(Cl)c4)cc[nH]c3=O)[nH]c2c1 (configuration not stated)	21	2.1	3.7	2.9	
Cc1cc(C2=NC(C)CN2)cc2[nH]c(-c3c(NCC(O)c4cccc(Cl)c4)cc[nH]c3=O)nc12 (configuration not stated)	10	4.7		67	
Cc1cc(C(=O)NC2CCCCC2)cc2[nH]c(-c3c(NCC(O)c4cccc(Cl)c4)cc[nH]c3=O)nc12 (configuration not stated)	59	1.3	11	6.6	
Cc1cc(C2=NCCN2C)cc2[nH]c(-c3c(NCC(O)c4cccc(Cl)c4)cc[nH]c3=O)nc12 (configuration not stated)	53	17	35	91	
Cc1cc(-c2ccccc2)cc2[nH]c(-c3c(N[C@H](CO)Cc4ccccc4)cc[nH]c3=O)nc12	0.58	0.53	3.6	2.3	
CNC(=N)c1cc(C)c2nc(-c3c(NCC(O)c4cccc(Cl)c4)cc[nH]c3=O)[nH]c2c1 (configuration not stated)	25	3.9	15	76	
Cc1cc(C2=NCCCN2)cc2[nH]c(-c3c(NCC(O)c4cccc(Cl)c4)cc[nH]c3=O)nc12 (configuration not stated)	20	8.5	16	100	
Cc1cc(C2=NC(C)(C)CN2)cc2[nH]c(-c3c(NCC(O)c4cccc(Cl)c4)cc[nH]c3=O)nc12 (configuration not stated)	11	5.1	13	47	
